In paper PMC10458458, “Characterization of Anticancer Effects of the Analogs of DJ4, a Novel Selective Inhibitor of ROCK and MRCK Kinases” (Pharmaceuticals, 2023):
pIC50: −log10 of the molar value.

How the values were obtained:
Assay in all cases: NCI-60 screen (SRB)
Assay type in all cases: cell-based, human
A549/ATCC = A549/ATCC (Non-Small Cell Lung Cancer), 10 µM, 48 h; negative = cell death vs time zero
Description: (§1) The selected active compounds were screened at NCI, as a part of In Vitro Cell Line Screening Project (IVCLSP), for their effect on cell growth in 60 different cancer cell lines. The 60 human cancer cell line panel included leukemia, melanoma, non-small cell lung cancer, colon, central nervous system (CNS), ovarian, renal, prostate, and breast cancer cell lines. The detailed procedure and applications of NCI-60 cell line screening can be found at https://dtp.cancer.gov/discovery_development/nci-60/default.htm (accessed on 9 January 2023). Briefly, cells were plated in 96-well plates and incubated for 24 h. One set of cells was fixed with trichloroacetic acid at time 0 h (Tz), and SRB (sulphorhodamine B) assays were performed to quantify the cells. The remaining set of cells were treated with 10 µM single concentration of each compound and incubated for 48 h (Te) after which the cells were fixed, and the SRB assays were performed. Data are presented as percent growth relative to the control as 100% according to the following calculations:
(§2) When Te >/= Tz. Growth(%)=Te−Tz/C−Tz∗100 and when Te < Tz. (1) Growth(%)=Te−Tz/Tz∗100
(§3) Values between 0–100 indicate cell growth, zero (0) indicates no cell growth, values < 0 indicate cell death.

ACHN = ACHN (Renal Cancer), 10 µM, 48 h; negative = cell death vs time zero
Description: as §1, §2, §3

CAKI-1 = CAKI-1 (Renal Cancer), 10 µM, 48 h; negative = cell death vs time zero
Description: as §1, §2, §3

CCRF-CEM = CCRF-CEM (Leukemia), 10 µM, 48 h; negative = cell death vs time zero
Description: as §1, §2, §3

EKVX = EKVX (Non-Small Cell Lung Cancer), 10 µM, 48 h; negative = cell death vs time zero
Description: as §1, §2, §3

HL-60(TB) = HL-60(TB) (Leukemia), 10 µM, 48 h; negative = cell death vs time zero
Description: as §1, §2, §3

HS 578T = HS 578T (Breast Cancer), 10 µM, 48 h; negative = cell death vs time zero
Description: as §1, §2, §3

LOX IMVI = LOX IMVI (Melanoma), 10 µM, 48 h; negative = cell death vs time zero
Description: as §1, §2, §3

MALME-3M = settings: 10 µM, 48 h; for percent cell growth: MALME-3M (Melanoma), negative = cell death vs time zero
Description: as §1, §2, §3

MDA-MB-231 = MDA-MB-231 (Breast Cancer), 10 µM, 48 h; negative = cell death vs time zero
Description: as §1, §2, §3

MDA-MB-435 = MDA-MB-435 (Melanoma), 10 µM, 48 h; negative = cell death vs time zero
Description: as §1, §2, §3

MOLT-4 = MOLT-4 (Leukemia), 10 µM, 48 h; negative = cell death vs time zero
Description: as §1, §2, §3

NCI-H23 = NCI-H23 (Non-Small Cell Lung Cancer), 10 µM, 48 h; negative = cell death vs time zero
Description: as §1, §2, §3

NCI-H322M = NCI-H322M (Non-Small Cell Lung Cancer), 10 µM, 48 h; negative = cell death vs time zero
Description: as §1, §2, §3

NCI-H522 = NCI-H522 (Non-Small Cell Lung Cancer), 10 µM, 48 h; negative = cell death vs time zero
Description: as §1, §2, §3

NCI/ADR-RES = settings: for percent cell growth: NCI/ADR-RES (Ovarian Cancer), negative = cell death vs time zero; for percent cell growth / increase in cell number: 10 µM, 48 h; for increase in cell number: NCI/ADR-RES (ovarian)
Description: as §1, §2, §3

OVCAR-4 = OVCAR-4 (Ovarian Cancer), 10 µM, 48 h; negative = cell death vs time zero
Description: as §1, §2, §3

RPMI-8226 = settings: 10 µM, 48 h; for percent cell growth: RPMI-8226 (Leukemia), negative = cell death vs time zero; for increase in cell number: RPMI-8226 (leukemia)
Description: as §1, §2, §3

SF-268 = SF-268 (CNS Cancer), 10 µM, 48 h; negative = cell death vs time zero
Description: as §1, §2, §3

SF-295 = SF-295 (CNS Cancer), 10 µM, 48 h; negative = cell death vs time zero
Description: as §1, §2, §3

SNB-75 = settings: 10 µM, 48 h; for percent cell growth: SNB-75 (CNS Cancer), negative = cell death vs time zero
Description: as §1, §2, §3

SR = SR (Leukemia), 10 µM, 48 h; negative = cell death vs time zero
Description: as §1, §2, §3

SW-620 = SW-620 (Colon Cancer), 10 µM, 48 h; negative = cell death vs time zero
Description: as §1, §2, §3

T-47D = T-47D (Breast Cancer), 10 µM, 48 h; negative = cell death vs time zero
Description: as §1, §2, §3

TK-10 = TK-10 (Renal Cancer), 10 µM, 48 h; negative = cell death vs time zero
Description: as §1, §2, §3

UACC-62 = UACC-62 (Melanoma), 10 µM, 48 h; negative = cell death vs time zero
Description: as §1, §2, §3

UO-31 = UO-31 (Renal Cancer), 10 µM, 48 h; negative = cell death vs time zero
Description: as §1, §2, §3

SMILES	percent cell growth (A549/ATCC) [%]	percent cell growth (ACHN) [%]	percent cell growth (CAKI-1) [%]	percent cell growth (CCRF-CEM) [%]	percent cell growth (EKVX) [%]	percent cell growth (HL-60(TB)) [%]	percent cell growth (HS 578T) [%]	percent cell growth (LOX IMVI) [%]	percent cell growth (MALME-3M) [%]	percent cell growth (MDA-MB-231) [%]	percent cell growth (MDA-MB-435) [%]	percent cell growth (MOLT-4) [%]	percent cell growth (NCI-H23) [%]	percent cell growth (NCI-H322M) [%]	percent cell growth (NCI-H522) [%]	percent cell growth (NCI/ADR-RES) [%]	percent cell growth (OVCAR-4) [%]	percent cell growth (RPMI-8226) [%]	percent cell growth (SF-268) [%]	percent cell growth (SF-295) [%]	also measured
Cl.O=C1NC(=NCCc2ccccc2)SC1=Cc1c[nH]c2ncccc12 (mixture of isomers) [DJ4-HCl]	8.1	−12.0	54.8	5.5	40.9	−6.6	8.8	8.3	44.8	25.9	18.5	8.6	3.0	19.6	4.3	58.4	32.3	38.7	8.9	18.7	percent cell growth (SNB-75): −13.3%; percent cell growth (SR): −1.5%; percent cell growth (SW-620): 7.8%; percent cell growth (T-47D): −1.3%; percent cell growth (TK-10): 18.8%; percent cell growth (UACC-62): −1.3%; percent cell growth (UO-31): 36.6%
O=C1N/C(=N\CCc2ccccc2)S/C1=C/c1c[nH]c2ncccc12 [DJ4]	19.1	16.0	37.4	9.9	46.0	6.8	8.8	16.3	30.6	25.5	21.0	11.4	9.1	5.2	26.6	72.9	23.8	39.2	10.4	22.6	pIC50 (NCI/ADR-RES; Homo sapiens, NCI/ADR-RES ovarian cancer cell line, NCI-60 screen): < 5.00; percent cell growth (SNB-75): −10.9%; percent cell growth (SR): 5.6%; percent cell growth (SW-620): 9.9%; percent cell growth (T-47D): 2.6%; percent cell growth (TK-10): 34.2%; percent cell growth (UACC-62): −1.4%; percent cell growth (UO-31): 25.2%
C=CC/N=C1\NC(=O)/C(=C\c2c[nH]c3ncccc23)S1 [DJ-Allyl]	13.2	−1.2	30.2	7.1	30.5	−14.5	−15.0	0.6	40.2	19.8	21.1	5.8	6.8	10.2	−5.3	42.1	34.7	42.7	−3.3	13.0	increase in cell number (MALME-3M; MALME-3M (melanoma)): ~ 40%; increase in cell number (NCI/ADR-RES): ~ 40%; increase in cell number (RPMI-8226): ~ 40%; percent cell growth (SNB-75): −67.3%; reduction in cell number (SNB-75; SNB-75 (CNS)): 60%; percent cell growth (SR): −9.5%; percent cell growth (SW-620): 7.4%; percent cell growth (T-47D): −8.7%; percent cell growth (TK-10): 1.7%; percent cell growth (UACC-62): 9.8%; percent cell growth (UO-31): 3.1%
CC/N=C1\NC(=O)/C(=C\c2c[nH]c3ncccc23)S1 [DJE4]	11.1	0.7	20.6	3.0	14.1	−22.4	−15.1	1.8	−6.2	10.7	−0.8	−6.0	−7.9	5.8	−28.6	29.7	19.5	29.1	−5.8	5.0	increase in cell number (NCI/ADR-RES): 29%; increase in cell number (RPMI-8226): 29%; percent cell growth (SNB-75): −71.8%; percent cell growth (SR): 0.4%; percent cell growth (SW-620): 6.5%; percent cell growth (T-47D): −9.7%; percent cell growth (TK-10): −3.8%; percent cell growth (UACC-62): −16.0%; percent cell growth (UO-31): 7.5%
